Legend:
[1] = system: ESBL-producing strain of Escherichia coli, having an associated resistance to the aminoglycosides (EcR3); experiment: MIC of the compounds used alone, microdilution in a liquid medium (CLSI); type: cell-based; conditions: antibiotic alone (second value of cell)
Text: (§1) The MICs of the antibiotics were previously defined for each strain, by the method of microdilution in a liquid medium (CLSI (Clinical and Laboratory Standards Institute), 2003).

[2] = system: Escherichia coli strain ATCC 25922 (wild type); experiment: as above; type: cell-based; conditions: antibiotic alone (second value of cell); E. coli ATCC 25922
Text: as §1

[3] = system: Staphylococcus aureus strain ATCC 29213 (wild type); experiment: as above; type: cell-based; conditions: antibiotic alone (second value of cell); S. aureus ATCC 29213
Text: as §1

[4] = system: cephalosporinase-hyperproducing strain of Escherichia coli (EcR2); experiment: as above; type: cell-based; conditions: antibiotic alone (second value of cell)
Text: as §1

[5] = system: penicillinase-producing strain of Escherichia coli without associated resistance (EcR1); experiment: as above; type: cell-based; conditions: antibiotic alone (second value of cell)
Text: as §1

[6] = system: MRSA strain having a resistance to the aminoglycosides and fluoroquinolones (SaR3); experiment: as above; type: cell-based, Staphylococcus aureus; conditions: antibiotic alone (second value of cell); SaR3
Text: as §1

[7] = system: MRSA strain having a resistance to the aminoglycosides, fluoroquinolones, macrolides-lincosamides-synergistins and ofloxacin (SaR4); experiment: as above; type: cell-based, Staphylococcus aureus; conditions: antibiotic alone (second value of cell); SaR4
Text: as §1

[8] = system: MRSA strain without associated resistance (SaR1); experiment: as above; type: cell-based, Staphylococcus aureus; conditions: antibiotic alone (second value of cell); SaR1
Text: as §1

[9] = system: EcR1: Penicillinase-Producing Escherichia coli without Associated Resistance; experiment: Antibiogram, MIC by the VITEK 2 system; type: cell-based
Method: (§2) 5.1 EcR1: Penicillinase-Producing Escherichia coli without Associated Resistance The bacterial and antibiogramidentification is carried out by the VITEK 2 system (bioMérieux) and by the disk diffusion technique.

[10] = system: EcR1: Penicillinase-Producing Escherichia coli without Associated Resistance; experiment: Antibiogram by the disk diffusion technique; type: cell-based; conditions: Table A1
Method: as §2

[11] = system: EcR2: Cephalosporinase-Hyperproducing Strain of Escherichia coli; experiment: Antibiogram by the disk diffusion technique; type: cell-based
Method: The bacterial and antibiogramidentification is carried out by the VITEK 1 system (bioMérieux) and by the disk diffusion technique

[12] = system: EcR3: ESBL-Producing Escherichia coli; experiment: Antibiogram by the disk diffusion technique; type: cell-based
Method: The bacterial and antibiogramidentification is carried out by the VITEK 2 system (bioMerieux) and by the disk diffusion technique

[13] = system: PaR3: Pseudomonas aeruginosa; experiment: Antibiogram, MIC by the VITEK 2 system; type: cell-based
Method: (§3) The bacterial and antibiogramidentification is carried out by the VITEK 2 system (bioMérieux)

[14] = system: SaR1: Meticillin-Resistant Staphylococcus aureus without Associated Resistance; experiment: Antibiogram, MIC by the VITEK 2 system; type: cell-based; conditions: SaR1
Method: as §3

[15] = system: PaR5: Pseudomonas aeruginosa; experiment: Antibiogram by the disk diffusion technique; type: cell-based
Method: (§4) The bacterial and antibiogramidentification is carried out by the VITEK 2 system (bioMérieux) and by the disk diffusion technique

[16] = system: SaR3: Meticillin-Resistant Staphylococcus aureus; experiment: Antibiogram by the disk diffusion technique; type: cell-based
Method: as §4

[17] = system: SaR4: Meticillin-Resistant Staphylococcus aureus; experiment: Antibiogram by the disk diffusion technique; type: cell-based
Method: as §4

[18] = system: PaR2: Pseudomonas aeruginosa; type: cell-based
Method: as §4

[19] = system: Escherichia coli, Staphylococcus aureus and Pseudomonas aeruginosa strains; experiment: Chessboard technique, summary statements over all strains and combinations tested; type: cell-based; conditions: strain not stated
Summary of the method: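 Checkerboard of 64 antibiotic/Cx1 concentration combinations per strain. FIC index classed as synergy (≤0.5), additive (>0.5–1), indifferent (>1–4) or antagonism (>4). Each strain and combination tested at least 3 times.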

[20] = system: SaR1: Meticillin-Resistant Staphylococcus aureus without Associated Resistance; experiment: Antibiogram, inhibition diameter (Table D1); type: cell-based
Method: as §3

With Gentamicin the “Initial MICs (mg/L)” value [1] was 2/2 mg/L, the “Initial MICs” value [2] was 0.125 mg/L and the “Initial MICs” value [3] was 0.25 mg/L. For the same substance, the “Initial MICs (mg/L)” value [4] was 2/2 mg/L, the “Initial MICs” value [5] was 0.125 mg/L and the “MIC” value [6] was 0.125 µg/mL. The “MIC” value [7] was 0.25 µg/mL, the “MIC” value [8] was 0.25 µg/mL and the “CA-SFM Interpretation” value ([9]; EcR1, MIC against Cc CA-SFM 2011) was “Susceptible”. The “CLSI Interpretation” value ([9]; EcR1, MIC against Cc CLSI 2011) was “Susceptible”, the “EUCAST Interpretation” value ([9]; EcR1, MIC against Cc EUCAST 2011) was “Susceptible” and the “MIC mg/L (diameter in mm)” value ([9]; EcR1, Table A2) was “≦1 mg/L”. For the same substance, the “MIC mg/L” value ([9]; EcR1, VITEK 2, Table A1) was “≦1 mg/L”, the Results ([9]; EcR1, interpretation of the MIC, Table A1) was “Susceptible” and the Diameter ([10]; EcR1, disk diffusion) was 20 mm. The Results ([10]; EcR1, interpretation of the diameter against Dmin Dmax) was “Susceptible”, the Diameter ([11]; EcR2, disk diffusion, Table B1) was 12 and the Results ([11]; EcR2, rows that print a diameter, Table B1) was “Resistant”. For the same substance, the Diameter ([11]; EcR2, Table B2, diameters) was 12 mm, the “CA-SFM Interpretation” value ([11]; EcR2, from diameter, CA-SFM 2011) was “Resistant” and the “CLSI Interpretation” value ([11]; EcR2, from diameter, CLSI 2011) was “Resistant”. For the same substance, the “EUCAST Interpretation” value ([11]; EcR2, from diameter, EUCAST 2011) was “Resistant”, the “CA-SFM Interpretation” value ([12]; Cd CA-SFM 2011) was “Resistant” and the “CLSI Interpretation” value ([12]; Cd CLSI 2011) was “Intermediate”. For the same substance, the “EUCAST Interpretation” value ([12]; Cd EUCAST 2011) was “Resistant”, the Diameter ([12]; Table C1) was 12 mm and the Results ([12]; Table C1, against Dmin Dmax) was “Resistant”. The diameter in mm ([12]; Table C2) was 12 mm, the “CA-SFM Interpretation” value ([13]; Cc CA-SFM 2011) was “Resistant” and the “CLSI Interpretation” value ([13]; Cc CLSI 2011) was “Resistant”. For the same substance, the “EUCAST Interpretation” value ([13]; Cc EUCAST 2011) was “Resistant”, the MIC ([13]; Table H1) was “≧16” and the Results ([13]; Table H1) was “Resistant”. The “MIC mg/L” value ([13]; Table H2) was “≧16 mg/L”, the “CA-SFM Interpretation” value ([14]; Cc CA-SFM 2011) was “Susceptible” and the “CLSI Interpretation” value ([14]; Cc CLSI 2011) was “Susceptible”. For the same substance, the “EUCAST Interpretation” value ([14]; Cc EUCAST 2011) was “Susceptible”, the “MIC mg/L” value ([14]; Table D1) was “≦0.5 mg/L” and the Results ([14]; Table D1, from MIC) was “Susceptible”. For the same substance, the “MIC mg/L” value ([14]; Table D2) was “≦0.5 mg/L”, the Diameter ([15]; PaR5, Table I1) was 25 mm and the Results ([15]; PaR5, Table I1, against Dmin-Dmax) was “Susceptible”. The diameter in mm ([15]; disk diffusion inhibition diameter, strain PaR5) was 25 mm, the “CA-SFM Interpretation” value ([15]; disk diffusion, PaR5, versus critical diameter CA-SFM 2011) was “Susceptible” and the “CLSI Interpretation” value ([15]; disk diffusion, PaR5, versus critical diameter CLSI 2011) was “Susceptible”. For the same substance, the “EUCAST Interpretation” value ([15]; disk diffusion, PaR5, versus critical diameter EUCAST 2011, for ** antibiotics the disk load differs and the EUCAST interpretation is not applicable) was “Susceptible”, the “CA-SFM Interpretation” value ([16]; Cd CA-SFM 2011) was “Susceptible” and the “CLSI Interpretation” value ([16]; Cd CLSI 2011) was “Susceptible”. For the same substance, the “EUCAST Interpretation” value ([16]; Cd EUCAST 2011) was “Susceptible”, the Diameter ([16]; Table E1) was 20 mm and the Results ([16]; Table E1, against Dmin Dmax) was “Susceptible”. For the same substance, the diameter in mm ([16]; Table E2) was 20 mm, the Diameter ([17]; Table F1) was 21 and the Results ([17]; Table F1, rows with a diameter) was “Susceptible”. For the same substance, the Diameter ([17]; Table F2, diameters) was 21 mm, the “CA-SFM Interpretation” value ([17]; from diameter, CA-SFM 2011) was “Susceptible” and the “CLSI Interpretation” value ([17]; from diameter, CLSI 2011) was “Susceptible”. For the same substance, the “EUCAST Interpretation” value ([17]; from diameter, EUCAST 2011) was “Susceptible”, the “CA-SFM Interpretation” value ([18]; Cd CA-SFM 2011) was “Susceptible” and the “CLSI Interpretation” value ([18]; Cd CLSI 2011) was “Susceptible”. The “EUCAST Interpretation” value ([18]; Cd EUCAST 2011) was “Susceptible”, the Diameter ([18]; Table G1) was 21 mm and the Results ([18]; Table G1, against Dmin-Dmax) was “Susceptible”. The diameter in mm ([18]; Table G2) was 21 mm, the “interaction between the antibiotic and Cx1” value [19] was “synergism” and the Diameter [20] was 23 mm. For the same substance, the Results ([20]; from diameter, against Dmin Dmax) was “Susceptible”.

Reference: patent publication US20140066365A1, “USE OF CALIXARENES ASSOCIATED WITH AN ANTIBIOTIC IN THE TREATMENT OF BACTERIAL INFECTIONS” (priority 2011, published 2014)
